{
  "source": "patent US10155802B2",
  "about": "“Locally-active anticoagulants and anti-inflammatory agents” (priority 2011, dated 2018)",
  "key": {"pooled human plasma [1]": {"test_system": "pooled human plasma", "assay": "Activated partial thromboplastin time (APTT) clotting assay", "assay_type": "biochemical", "details": "37° C.; concentration for 50% of maximum delay in clotting time; read-out: MTC50 (APTT)", "method": "(§1) Prothrombin (clotting) time (PT) or activated partial thromboplastin (clotting) time (APTT) assays were carried out at certain concentrations of the thrombin inhibitors of the present invention using pooled human plasma with addition of thromboplastin or activated partial thromboplastin to initiate clotting. The assays employed kits from Biopool International (Ventura, Calif., USA) or from Pacific Haemostasis (Middletown, Va., USA) using the procedures supplied by the manufacturer. Briefly, the stock solution of an inhibitor (with the concentration determined using UV-based OD determination, see Gill 1989) is diluted in a buffer of 20 mM HEPES and 150 mM NaCl at pH 7.4 (HBS) to a final volume of 50 μL, to which is added the reconstituted normal plasma (Product #CMS-176172 from Fisher Scientific) in an equal volume. This solution mixture is equilibrated at 37° C. for 2 minutes before 50 μL of the APTT-10XL solution (CMS-022927) is introduced forcibly to ensure proper mixing. This new mixture was incubated at 37° C. for another 5 minutes, which is followed by the addition of 50 μL of 0.02 M […] (Fisher Scientific CMS-022925) pre-warmed at 37° C. For the prothrombin time (PT) assay, an inhibitor is diluted in HBS to a final volume of 25 μL, to which is added the reconstituted control plasma (Fisher Scientific CMS-176172) in an equal volume. This solution mixture is equilibrated at 37° C. for 5 minutes before addition of 100 μL of the thromboplastin solution (CMS-176099) pre-warmed at 37° C. For APTT assays, inhibitory activities of the peptides are expressed as concentrations needed to achieve 50% of the maximum delay in clotting time (MCT50) as compared to the absence of thrombin inhibitors (Maraganore 1989). For PT assays, inhibitory activities are measured as the concentrations of the peptides that prolong the clotting time by 50% (IC50) of that of the normal control plasma (Maraganore 1990). PT and APTT assays were also carried out using slightly modified experimental procedures. Thus, 50 μL of a control plasma (Pacific Hemostasis) solution was added to 100 μL HBS (20 mM HEPES and 150 mM NaCl at pH 7.4) containing varied concentrations of the peptides of this invention. After incubation at 37° C. for 5 min, the mixture was added to 50 μL of the thromboplastin or activated partial thromboplastin reagent. Clotting of the plasma was monitored by change in absorbance at 420 nm using a SpectraMax™ plate reader."}, "[2]": {"test_system": "human coagulation proteome", "assay": "Synthetic coagulation proteome assay (thrombin generation)", "assay_type": "biochemical", "details": "37° C.", "method": "This assay is carried out using an established protocol as described previously (Brummel-Ziedens 2008). Briefly, a pro-cofactor solution containing re-lipidated tissue factor (10 pM; molar ratio PCPS:TF=5000) was incubated with 4 μM PCPS in HBS (20 mM HEPES and 150 mM NaCl at pH 7.4) and 2 mM CaCl2 for 8 min at 37° C. Factor V (40 nM) and Factor VIII (1.4 nM) were then added to the mixture prior to initiation of the reaction to activate the protease zymogens in the blood coagulation cascade. The activation reaction was initiated by addition of the pro-cofactor solution to a zymogen solution containing prothrombin (2.8 μM), Factor VII (20 nM), Factor Vila (0.2 nM), FX (340 nM), Factor IX (180 nM), Factor XI (60 nM), TFPI (5 nM), antithrombin III (6.8 μM) […]\nAt selected time points after initiation of the reaction, 10 μL aliquots were withdrawn from the reaction mixture and quenched in 20 mM EDTA in HBS (pH 7.4) containing 0.2 mM Spectrozyme™ TH and assayed immediately for the proteolytic activity of thrombin. The hydrolysis of Spectrozyme™ TH was monitored by the change in absorbance at 405 nm using a SpectraMax™ plate reader (Molecular Devices Corp., Menlo Park, Calif., USA). Concentration of thrombin generated by the reaction was calculated from a standard curve prepared by serial dilutions of known concentrations of α-thrombin using the fibrinogen clotting assay (DiMaio 1990). Fibrinogen solution was freshly prepared by dissolving about 0.5% (w/v) fibrinogen in 50 mM Tris-HCl, 100 mM NaCl, 0.1% PEG-8000, pH 7.6 and filtering the resulting solution through a hydrophilic membrane of 0.45 μm polyvinylidene fluoride (PVDF) with low protein binding. The concentration of fibrinogen after filtration was determined by using the extinction coefficient of 15.0 for 1% fibrinogen at 280 nm. […] Thrombin-induced clotting of fibrinogen was followed at 25° C. by measuring the optical absorbance at 420 nm. The clotting time was obtained from extrapolation of the slope at the point of inflection to the zero absorbance baseline. […]"}, "pooled human plasma [3]": {"test_system": "pooled human plasma", "assay": "Prothrombin time (PT, thromboplastin) clotting assay", "assay_type": "biochemical", "details": "for IC50: 37° C., concentration that prolongs clotting time by 50%", "method": "as §1"}, "[4]": {"test_system": "FeCl3-induced arterial thrombosis (carotid artery)", "assay": "FeCl3-induced arterial model of thrombosis in rats (time to occlusion)", "assay_type": "in vivo", "details": "rat, single-bolus injection", "method": "Male Sprague-Dawley rats (250-310 g; Charles River Laboratories, St-Constant, QC, Canada) were acclimated for at least 3 days prior to the start of the study. Animals were housed in microisolator cages and were kept on a 12-hr light/dark cycle with constant temperature and humidity. Food and water were provided ad libitum. Various anti-thrombotic agents and peptides of this invention were dissolved in saline (0.9% sodium chloride) prior to use.\nThe FeCl3-induced arterial model of thrombosis in rats was also generated as described by Wang and Xu (Wang 2005) with some modifications (Couture 2011). Briefly, rats were anesthetized with a 2.5% isoflurane/oxygen mixture and placed on a heat source (35-37° C.). An incision was made over the right carotid artery, and a segment of the artery was exposed via blunt dissection. A Doppler flow probe (Model MA1PRB, Transonic System Inc., Ithaca, N.Y., USA) connected to a perivascular flow module (TS420, Transonic System Inc., Ithaca, N.Y., USA) was then attached to the carotid artery to monitor blood flow. Data were collected and analyzed using the MP100 Biopac™ Systems (Biopac Systems, Santa Barbara, Calif., USA), and the AcgKnowledge™ software (Biopac Systems, Santa Barbara, Calif., USA), respectively. Baseline blood flow was recorded for a minimum of 15 minutes until readings stabilized. Aquasonic 100 gel (Parker Laboratories, Inc., Fairfield, N.J., USA) was added to help conductivity and any fluid accumulating at the site of surgery was removed during data sampling without touching the probe. […] One minute after drug administration, a piece of filter paper (Gel Blot Paper, GB003, Whatman, Piscataway, N.J., USA; 7 mm diameter) saturated with 20% FeCl3 (EMD Chemicals Inc., Gibbstown, N.J., USA) was placed on the exposed surface of the carotid artery and incubated for 3.5 minutes. During the application of FeCl3, the neck region was covered with aluminum foil. At the end of the incubation period, the filter paper was removed and the exposed carotid was covered with a saline-soaked gauze. Time to occlusion was defined as the time from the application of FeCl3 until blood flow decreased to zero. […] Preparing and processing each animal took approximately 1 hr and 7 animals were treated each day. Control animals were always included when the other treatments were being administered. For this reason, the number of animals in the control group is higher than that of the treated-groups.\nStatistical analysis was conducted using GraphPad™ Prism (GraphPad Software Inc., San Diego Calif., USA). Data were analyzed using one-way ANOVA with post-hoc Bonferroni correction for multiple comparisons. The relationship between thrombus weight and thrombus volume was determined by linear regression. […]"}, "rat-tail collagen type I": {"biological_target": "T1, rat-tail collagen type I (Rattus norvegicus, UniProt P02454+P02466)", "T1 construct": "purchased BD Bioscience; host or cells: rat tail (tissue-derived)", "T1 sequence (P02454 152-1207)": "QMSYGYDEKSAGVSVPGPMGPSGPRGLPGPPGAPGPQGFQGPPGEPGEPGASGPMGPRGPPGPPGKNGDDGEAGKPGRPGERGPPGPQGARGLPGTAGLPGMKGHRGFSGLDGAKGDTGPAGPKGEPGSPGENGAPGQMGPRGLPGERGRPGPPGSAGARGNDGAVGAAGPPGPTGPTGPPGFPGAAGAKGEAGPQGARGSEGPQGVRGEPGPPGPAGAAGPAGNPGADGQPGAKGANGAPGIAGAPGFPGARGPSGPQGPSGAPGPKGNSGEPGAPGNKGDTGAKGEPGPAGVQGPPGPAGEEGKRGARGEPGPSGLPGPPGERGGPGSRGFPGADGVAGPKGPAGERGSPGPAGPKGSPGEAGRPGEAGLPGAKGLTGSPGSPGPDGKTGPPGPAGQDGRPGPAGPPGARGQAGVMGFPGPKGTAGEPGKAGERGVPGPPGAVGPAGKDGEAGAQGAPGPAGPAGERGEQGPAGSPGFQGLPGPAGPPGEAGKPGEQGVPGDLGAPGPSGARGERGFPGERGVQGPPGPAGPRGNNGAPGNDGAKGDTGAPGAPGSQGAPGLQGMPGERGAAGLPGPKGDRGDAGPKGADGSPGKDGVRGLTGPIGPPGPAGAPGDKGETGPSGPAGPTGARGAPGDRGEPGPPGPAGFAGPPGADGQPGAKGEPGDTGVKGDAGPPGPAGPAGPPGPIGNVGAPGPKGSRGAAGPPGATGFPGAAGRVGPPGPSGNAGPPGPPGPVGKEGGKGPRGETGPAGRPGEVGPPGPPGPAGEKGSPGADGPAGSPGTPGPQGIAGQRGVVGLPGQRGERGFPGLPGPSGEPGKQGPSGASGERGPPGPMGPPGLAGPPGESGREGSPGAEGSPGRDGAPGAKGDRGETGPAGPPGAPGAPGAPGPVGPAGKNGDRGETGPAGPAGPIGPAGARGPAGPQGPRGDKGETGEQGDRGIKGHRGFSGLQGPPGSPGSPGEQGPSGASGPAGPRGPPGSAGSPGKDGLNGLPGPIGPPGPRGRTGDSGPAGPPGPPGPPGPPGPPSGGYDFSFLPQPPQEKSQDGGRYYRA", "T1 sequence (P02466 86-1125)": "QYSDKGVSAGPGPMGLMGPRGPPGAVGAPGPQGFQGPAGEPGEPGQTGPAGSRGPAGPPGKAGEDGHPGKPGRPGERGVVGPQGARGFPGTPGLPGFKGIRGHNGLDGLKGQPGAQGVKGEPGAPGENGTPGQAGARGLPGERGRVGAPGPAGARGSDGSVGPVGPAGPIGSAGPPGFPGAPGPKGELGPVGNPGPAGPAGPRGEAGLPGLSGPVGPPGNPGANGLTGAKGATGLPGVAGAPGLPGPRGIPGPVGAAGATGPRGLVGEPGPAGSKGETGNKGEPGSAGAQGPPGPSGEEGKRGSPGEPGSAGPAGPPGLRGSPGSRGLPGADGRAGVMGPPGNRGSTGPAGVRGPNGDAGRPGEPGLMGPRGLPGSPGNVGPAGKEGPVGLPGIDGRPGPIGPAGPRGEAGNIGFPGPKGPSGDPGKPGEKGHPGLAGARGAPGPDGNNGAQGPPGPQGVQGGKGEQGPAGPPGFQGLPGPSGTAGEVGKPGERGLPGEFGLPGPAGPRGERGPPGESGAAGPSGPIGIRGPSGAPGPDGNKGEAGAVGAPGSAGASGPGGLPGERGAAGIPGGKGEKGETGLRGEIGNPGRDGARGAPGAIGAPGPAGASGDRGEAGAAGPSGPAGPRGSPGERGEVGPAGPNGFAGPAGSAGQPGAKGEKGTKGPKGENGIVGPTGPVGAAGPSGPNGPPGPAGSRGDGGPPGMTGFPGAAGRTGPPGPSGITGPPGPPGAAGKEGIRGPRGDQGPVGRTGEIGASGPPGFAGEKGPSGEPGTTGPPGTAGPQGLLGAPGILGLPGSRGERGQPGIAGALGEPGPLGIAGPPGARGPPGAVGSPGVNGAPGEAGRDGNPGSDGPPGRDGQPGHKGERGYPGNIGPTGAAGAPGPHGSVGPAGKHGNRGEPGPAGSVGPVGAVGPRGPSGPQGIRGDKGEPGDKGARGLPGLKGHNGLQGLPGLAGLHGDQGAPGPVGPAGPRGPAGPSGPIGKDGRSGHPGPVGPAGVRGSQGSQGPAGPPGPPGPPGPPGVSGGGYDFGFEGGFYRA", "assay": "Peptide-collagen binding by reduction of collagen fibril alignment (deuterium coupling constant)", "details": "collagen gelation under magnetic field in presence of peptide", "excerpt": "High-resolution proton NMR spectroscopy is used to illustrate the behavior of the linker peptides […] (SEQ ID NO: 2 or gb1), […] (SEQ ID NO: 3 or trpzip6), […] (SEQ ID NO: 4 or trpzip5) and […] (SEQ ID NO: 5 or trpzip4) in aqueous solutions. The peptides were synthesized using standard Fmoc chemistry and purified by reverse-phase HPLC. Their identity was confirmed by mass-spectroscopy and NMR spectroscopy. For NMR studies, a volume of (400-X) μL of a peptide dissolved in pure water was mixed with 50 μL of a 10×PBS (phosphate-buffered saline) supplemented by sodium phosphate to a final concentration of 50 mM and with 50 μL of deuterated water (D2O) to form the reference sample (where X=0) and with a certain volume (X μL) of rat-tail collagen type I (at 3.6 to 4 mg/ml in 0.02 N acetic acid from BD Bioscience), (where X is adjusted to achieve the desired final concentration of collagen), with 50 μL of the 10× modified PBS and with 50 μL of deuterated water (D2O) to form the peptide-collagen complex. The pH value of the reference peptide samples was adjusted to match the pH of the final peptide-collagen complex in order to facilitate NMR spectral comparison.\nThe peptide-collagen solutions were subjected to gelation under magnetic field guidance (see Example 7) followed by the measurement of fibril alignment (Ma 2008) as a semi-quantitative indication of peptide-collagen binding. […]"}},
  "note": "No end group written: not given here.",
  "data": [
    {"molecule": "CC[C@H](C)[C@H](N)C(=O)N[C@@H](CCCNC(=N)N)C(=O)N[C@@H](Cc1ccccc1)C(=O)N[C@H](C(=O)N[C@@H](CC(=O)O)C(=O)NCC(=O)N[C@@H](CCC(=O)O)C(=O)NCC(=O)N[C@H](C(=O)NCC(=O)N[C@@H](CO)C(=O)NCC(=O)N[C@@H](CO)C(=O)NCC(=O)N[C@@H](CO)C(=O)NCC(=O)N[C@@H](CO)C(=O)NCC(=O)N[C@@H](CC(=O)O)C(=O)N[C@@H](Cc1ccccc1)C(=O)N[C@@H](CCC(=O)O)C(=O)N[C@@H](CCC(=O)O)C(=O)N[C@H](C(=O)N1CCC[C@H]1C(=O)N[C@@H](CCC(=O)O)C(=O)N[C@@H](CCC(=O)O)C(=O)N[C@@H](Cc1ccc(O)cc1)C(=O)N[C@@H](CC(C)C)C(=O)N[C@@H](CCC(N)=O)C(=O)O)[C@@H](C)CC)[C@@H](C)O)[C@@H](C)O", "note": "[MH2-GS]", "values": [
      {"measurement": "EC50", "setting": "pooled human plasma [1]", "value": 0.9, "unit": "µM"},
      {"measurement": "delay of thrombin burst / onset of thrombin generation", "setting": "[2]", "value": "clear dose-dependency for the delay of thrombin burst"},
      {"measurement": "IC50", "setting": "pooled human plasma [3]", "value": 0.2, "unit": "µM"},
      {"measurement": "anticoagulant effect in PT versus APTT assays", "setting": "pooled human plasma [3]; in words", "value": "more potent effect in delaying the prothrombin time as compared to APTT"}
    ]},
    {"molecule": "CC1CNc2c(cccc2S(=O)(=O)N[C@@H](CCCNC(=N)N)C(=O)N2CC[C@@H](C)C[C@@H]2C(=O)O)C1", "note": "(some centres unmarked) [Argatroban, reference compound]", "values": [
      {"measurement": "reduction of arterial occlusion", "setting": "[4]", "value": "consistently better efficacy"}
    ]},
    {"molecule": "GEWTWDDATKTWTWTE (not fully specified (C-terminus)) [trpzip4]", "values": [
      {"measurement": "reduction of deuterium coupling constant (degree of collagen fibril alignment)", "setting": "rat-tail collagen type I", "value": "more than 1.0 Hz"}
    ]},
    {"molecule": "Bivalirudin [reference compound]", "values": [
      {"measurement": "reduction of arterial occlusion", "setting": "[4]", "value": "consistently better efficacy"},
      {"measurement": "IC50", "setting": "pooled human plasma [3]", "value": 0.093, "unit": "µM"}
    ]}
  ]
}
